Where “and” joins values, the source holds several entries; their conditions need not be identical. Identical values can stand only once. Counter-ions that a name gives are not always drawn.

The term melting point denotes the temperature of the solid-liquid transition. `Cc1cccc(Nc2ccccc2C(=O)O)c1C` [Mefenamic acid] came in with a melting point of 230 °C.

For the compound `CN1CCN(CCCN2c3ccccc3Sc3ccccc32)CC1` [perazine], the melting point stood at 53 °C.

The compound `O=[N+]([O-])c1cccc(CBr)c1` [3-nitrobenzyl_bromide] returned a melting point of 59 °C.

`CCCCCCCCC` [N-nonane]: the melting point is -53 °C.

Turning to `O=Cc1cccc(O)c1` [3-hydroxybenzaldehyde], the melting point was determined as 105 °C.

Consider `CCCC(N)=O` [butyramide], for which the melting point is 116 °C.

`CC(Cl)(Cl)Cl` [1,1,1-trichloroethane] had a melting point of -30 °C.

As to `C=COCC` [ethyl vinyl ether], the melting point is -115 °C.

In turn, `CN1C(=O)c2ccccc2C1C1=COCCC1` (stereo unspecified) [3-(3,4-Dihydro-2H-pyran-5-yl)-2-methylisoindolin-1-one] displayed a melting point of 95.5 °C.

For `O=C1Cc2ccccc2CO1` [1,4-Dihydro-3H-isochromen-3-on], the melting point stood at 83 °C.

Take `Cl\C1=C(/Cl)C2(Cl)C3C4CC(C3C1(Cl)C2(Cl)Cl)C5OC45` (stereo unspecified) [endrin]: the melting point is 210 °C.

In the case of `Cc1ccc(O)c2c1CCC2` [7-methyl-4-indanol], the melting point turned out to be 81 °C.

`O=C(O)C(F)(F)F` [trifluoroacetic acid] gave a melting point of -15 °C.

Regarding `N#Cc1c(Cl)cccc1Cl` [2,6-Dichlorobenzonitrile], the melting point was 144 °C.

Regarding `CC(=O)C(=Cc1ccc(-c2cccc([N+](=O)[O-])c2)o1)C(C)=O`, the melting point stood at 154 °C.

In turn, `O=C(c1ccccc1)c1c(F)c(F)c(F)c(F)c1F` [2,3,4,5,6-pentafluorobenzophenone] gave a melting point of 38 °C.

`CCOC1OC(C(N)=O)=CCC1Br` (stereo unspecified) [3-bromo-2-ethoxy-3,4-dihydro-2H-pyran-6-carboxamidato] displayed a melting point of 142 °C.

For `C=CCCCCCCCCCCCC` [1-tetradecene], the melting point is -12 °C.

Regarding `CS(=O)(=O)OCCCCOS(C)(=O)=O` [busulfan], the melting point is 116 °C.

The compound `N#C/C(=C\c1ccc(Cl)cc1Cl)c1nc(-c2cccc3ccccc23)cs1` registered a melting point of 133 °C.

As to `COC(=O)/C=CC(=O)OC` [dimethyl maleate], the melting point was -19 °C.

In turn, `O=C(O)c1cc(Br)ccc1O` [5-bromosalicylic acid] returned a melting point of 168 °C.

Compound `Cc1ccccc1O` [o-Cresol] displayed a melting point of 33 °C.

Consider `Nc1cccc(Br)c1` [m-bromoaniline], for which the melting point was 17 °C.

Compound `NC(=O)CCCCC(N)=O` [Adipamide] registered a melting point of 220 °C.

On to `C/C=C/CC` [trans-2-pentene], for which the melting point was -140 °C.

`N#Cc1ccc2ncsc2c1` [benzothiazole-6-carbonitrile] had a melting point of 138 °C.

`COc1ccc2cc(OC)ccc2c1` [2,6-dimethoxynaphthalene] displayed a melting point of 153 °C.

With `CCCCCCC` [N-heptane], the melting point is -91 °C.

`N#Cc1cc(-c2ccccc2)cnc1Cl` [2-chloro-3-cyano-5-phenylpyridine]: the melting point amounted to 145 °C.

Compound `COc1ccc(CC#N)cc1OC` [3,4-dimethoxyphenylacetonitrile] had a melting point of 64 °C.

Regarding `CCCCCCCCCC(C)O` (stereo unspecified) [2-undecanol], the melting point came out at 2 °C.

With `c1ccc2ccccc2c1` [naphthalene], the melting point was 80 °C and 82 °C and 81 °C.

As for `Nc1ccc(Br)cc1` [4-Bromoaniline], the melting point turned out to be 64 °C.

Compound `CCCCCCCS` [1-heptanethiol] returned a melting point of -43 °C.

As for `CC(=O)c1ccc(Br)cc1` [p-bromoacetophenone], the melting point was found to be 51 °C.

As to `COC(=O)/C=C(/C(=O)OC)N(Nc1ccccc1N=Nc1ccccc1)c1ccccc1`, the melting point was determined as 154 °C.

`CCCCOc1ccc(CC(=O)NO)cc1` [bufexamac] yielded a melting point of 153 °C.

For the compound `Cl\C1=C(/Cl)C2(Cl)C3C4CC(C3C1(Cl)C2(Cl)Cl)C5OC45` (stereo unspecified) [dieldrin], the melting point turned out to be 176 °C.

The compound `Cc1cc(O)ccc1Cl` [4-Chloro-3-methylphenol] had a melting point of 67 °C.

In the case of `C=CCc1cc(OC)c(O)c(C(=O)NCCO)c1` [alibendol], the melting point turned out to be 95 °C.

As for `[O-][n+]1ccccc1` [pyridine n-oxide], the melting point came to 64 °C.

Take `CN(C)c1ccc(N)cc1` [N,N-Dimethylbenzene-1,4-diamine]: the melting point turned out to be 35 °C.

The compound `Cc1ncc(COP(=O)(O)O)c(C=O)c1O` [Pyridoxal Phosphate] registered a melting point of 205 °C.

In turn, `COC(=O)CCC(C)C1CCC2C3C(OC(C)=O)CC4CC(=O)CCC4(C)C3CC(=O)C12C` (stereo unspecified) [methyl 7-(acetyloxy)-3,12-dioxocholan-24-oate] returned a melting point of 166 °C.

Consider `O=C4\C=C2/[C@]([C@H]1CC[C@@]3([C@@H](O)CC[C@H]3[C@@H]1CC2)C)(C)CC4` [testosterone], for which the melting point is 155 °C and 154 °C.

In turn, `CSC1N=NC(N)=C1C#N` (stereo unspecified) [1H-pyrazole-4-carbonitrile, 3-amino-5-(methylthio)-] yielded a melting point of 190 °C.

Take `Cc1ccnc(NS(=O)(=O)c2ccc(N)cc2)n1` [Sulfamerazine]: the melting point was 235 °C.

On to `Nc1ccc(Cl)cc1` [4-chloroaniline], for which the melting point turned out to be 70 °C.

In the case of `O=C(O)CCCCCCCCC(=O)O` [sebacic acid], the melting point turned out to be 133 °C.

In turn, `O=C(O)c1csnn1` [1,2,3-thiadiazole-4-carboxylic acid] gave a melting point of 228 °C.

As for `C[C@@H]1CCCC[C@@H]1O` (relative stereo) [cis-2-methylcyclohexanol], the melting point came out at 8 °C.

The compound `Cc1cc(C=O)c(C)n1-c1ccccc1` [2,5-dimethyl-1-phenylpyrrole-3-carboxaldehyde] showed a melting point of 89 °C.

For the compound `CN(C)c1ccc(/C=N/c2ccccc2)cc1` [N-(4-Dimethylaminobenzylidene)aniline], the melting point is 99 °C and 100 °C.

`CCC(C)CC(=O)O` (stereo unspecified) [3-methylvaleric acid] came in with a melting point of -42 °C.

Take `O=C(O)CCc1c(F)c(F)nc(F)c1F` [2,3,5,6-tetrafluoropyridine-4-propionic acid]: the melting point worked out at 152 °C.

`COc1ccc(/C=C/C=O)cc1` [trans-4-methoxycinnamaldehyde] yielded a melting point of 58 °C.

For the compound `O=c1ccn([C@@H]2C[C@H](O)[C@@H](CO)O2)c(=O)[nH]1` [2'-Deoxyuridine], the melting point was 163 °C.

Regarding `c1ccc(Oc2ccccc2)cc1` [phenyl_ether], the melting point was 28 °C.

`CCCCCCCC(C)=O` [2-nonanone] had a melting point of -8 °C.

Compound `O=Cc1ccc(-c2ccccc2)cc1` [biphenyl-4-carboxaldehyde] gave a melting point of 59 °C.

`CC(=O)CC(C)=O` [Pentane-2,4-dione] displayed a melting point of -23 °C.

With `CNC(C)=O` [N-methylacetamide], the melting point stood at 27 °C.

`CCc1nnc(N)s1` [5-Ethyl-1,3,4-thiadiazol-2-amine]: the melting point stood at 201 °C.

In turn, `Cc1ccc(O)c(C(=O)O)c1` [5-methylsalicylic acid] showed a melting point of 153 °C.

In turn, `COc1cc(Cl)nc(OC)n1` [6-chloro-2,4-dimethoxypyrimidine] yielded a melting point of 72 °C.

For `CC(=O)c1ccccc1[N+](=O)[O-]` [1-(2-Nitrophenyl)ethanone], the melting point was found to be 23 °C.

In turn, `O=Cc1ccc(N2CCCC2)c([N+](=O)[O-])c1` [3-nitro-4-(1-pyrrolidinyl)benzaldehyde] had a melting point of 103 °C.

`CCCCC1(CC)C(=O)NC(=O)NC1=O` [Butethal] came in with a melting point of 128 °C.

On to `Nc1nc(O)nc2c1cnn2CCO` [4-amino-1-(2-hydroxyethyl)-1H-pyrazolo[3,4-d]pyrimidin-6-ol], for which the melting point is 308 °C.

Turning to `CC(CCC(=O)O)C1CCC2C3CCC4CC(=O)CCC4(C)C3CC(O)C12C` (stereo unspecified) [12-hydroxy-3-oxocholan-24-oic acid], the melting point worked out at 108 °C.

As to `N#C/C(=C\c1ccccc1)c1nc2ccccc2s1` [(2E)-2-(1,3-Benzothiazol-2-yl)-3-phenylacrylonitrile], the melting point came to 106 °C.

Regarding `Cc1ncccc1O` [3-hydroxy-2-methylpyridine], the melting point came out at 168 °C.

Take `COC(=O)CCC(=O)OC` [Dimethyl succinate]: the melting point worked out at 19.5 °C.

As to `CCCCCCCCCCCCCCCCCCCCCCCCCCCCCC` [N-triacontane], the melting point worked out at 67 °C.

For `C=COCCCC` [N-butyl vinyl ether], the melting point was -113 °C.

Turning to `CCc1ccc(N)cc1` [4-ethylaniline], the melting point was -5 °C.

For `Cc1cc(C)c(C)cc1C` [1,2,4,5-tetramethylbenzene], the melting point was 80 °C.

Compound `CN(C)C=O` [N,N-Dimethylformamide] yielded a melting point of -61 °C.

Consider `Oc1ccccc1O` [Pyrocatechol], for which the melting point came out at 105 °C.

`COc1ccc2c(C(=O)c3ccc(Cl)cc3)c(C)n(CC(=O)O)c2c1` [clometacin]: the melting point is 242 °C.

The compound `CC(C)(C)C(=O)Cl` [trimethylacetyl chloride] yielded a melting point of -57 °C.

In turn, `O=C(O)/C(=C/c1cccc2ccccc12)c1ccccc1` [(2E)-3-naphthalen-1-yl-2-phenylprop-2-enoic acid] gave a melting point of 161 °C.

As to `O=C1c2ccccc2-c2ccccc21` [9H-Fluoren-9-one], the melting point was 83 °C.

In the case of `OB(O)c1ccc(C(F)(F)F)cc1` [4-(trifluoromethyl)benzeneboronic acid], the melting point came out at 240 °C.

Compound `O=c1c2ccccc2sc2ccccc12` [9H-Thioxanthen-9-one] returned a melting point of 209 °C.

Turning to `O=Cc1ccc(O)cc1O` [2,4-Dihydroxybenzaldehyde], the melting point stood at 136 °C.

`O=[N+]([O-])c1ccc(Oc2ccc(C(F)(F)F)cc2[N+](=O)[O-])cc1` [Fluorodifen] returned a melting point of 90 °C.

With `CCCCOC(=O)c1ccccc1C(=O)OCCCC` [di-n-butyl phthalate], the melting point was -35 °C.

Turning to `C=CC(C)CC` (stereo unspecified) [3-methyl-1-pentene], the melting point was -153 °C.

For the compound `CCN(CC)c1ccccc1` [N,N-Diethylaniline], the melting point is -38 °C.

The record behind these values is the Bradley open melting point set (2014).
